Structures can show the parent of a compound that is named as a salt.
How the values were obtained:
Aurora B = target: T1, Aurora B (Homo sapiens, UniProt Q96GD4); test: Aurora B inhibitory action (33P-ATP kinase assay, Kemptide substrate); assay type: biochemical; conditions: 100 μM ATP, 30° C., 20 minutes
T1 construct: histidine tag (N); made in house; host or cells: Escherichia coli BL21-CodonPlus(DE3)-RIL
Text: Aurora B Inhibitory Action
(1) Purification of Aurora B
(§1) cDNA of Aurora B having histidine tag fused at the amino terminal was integrated into an expression vector, which was then highly expressed in Escherichia coli BL21-CodonPlus(DE3)-RIL cells. The Escherichia coli cells were recovered and solubilized, and then the histidine-tagged […] protein was adsorbed onto a nickel chelate column and eluted from the column with imidazole. The active fraction was desalted with a desalting column to give a pure enzyme.
(2) Measurement of Activity of Aurora B
For measurement of the activity of Aurora B, the substrate used was Kemptide (Lys-Arg-Arg-Ala-Ser-Lys-Gly) (SEQ.ED.NO.: 1), a synthetic peptide purchased from Sigma-Aldrich, Inc. [Certificate of analysis (Upstate, Inc.)].
Reaction was conducted by a partial modification of the method of activity measurement for Aurora A. The amount of the reaction liquid was 21.1 μL, and the composition of the reaction buffer (R2 buffer) was 50 mM Tris-hydrochloride buffer (pH 7.4)/15 mM magnesium acetate/0.2 mM ethylenediamine-N,N,N′,N′-tetraacetate (EDTA). To this, purified Aurora B, 100 μM of a substrate peptide, 100 μM of unlabeled adenosine triphosphate (ATP) and 1 μCi of [γ-^33P] labeled ATP (2,500 Ci/mmole or more) were added, and the mixture was reacted at 30° C. for 20 minutes. Then, 10 μL of 350 mM phosphate buffer was added to the reaction system to stop the reaction. The substrate peptide was adsorbed on a P81 paper filter 96-well plate and then washed with 130 mM phosphate buffer for several times. The radiation activity of the peptide was measured with a liquid scintillation counter. The [γ-^33P] labeled ATP was purchased from Amersham Biosciences Co., Ltd.
(§2) The compound to be tested was added to the reaction system such that a dilution series of the compound in dimethylsulfoxide was first prepared, and 1.1 μL of this solution was added. A control was provided by adding 1.1 μL of DMSO to the reaction system.

Aurora A = target: T2, Aurora A (Homo sapiens, UniProt O14965); test: Aurora A inhibitory action (33P-ATP kinase assay, Kemptide substrate); assay type: biochemical; conditions: 20 μM ATP, 30° C., 20 minutes
T2 construct: histidine tag (N); made in house; host or cells: Escherichia coli BL21-CodonPlus(DE3)-RIL
T2 sequence (O14965 1-403): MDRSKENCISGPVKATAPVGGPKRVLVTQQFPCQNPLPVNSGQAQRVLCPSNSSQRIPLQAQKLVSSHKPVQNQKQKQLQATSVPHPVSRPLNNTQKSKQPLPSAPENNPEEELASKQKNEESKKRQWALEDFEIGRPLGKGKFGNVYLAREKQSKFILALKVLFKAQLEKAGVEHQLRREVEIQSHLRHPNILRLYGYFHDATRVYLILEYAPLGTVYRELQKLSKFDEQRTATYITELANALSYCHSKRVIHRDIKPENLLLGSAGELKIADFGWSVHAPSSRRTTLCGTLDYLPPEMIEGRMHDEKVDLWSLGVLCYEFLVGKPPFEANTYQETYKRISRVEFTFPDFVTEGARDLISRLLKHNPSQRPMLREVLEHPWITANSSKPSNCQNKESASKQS
Text: Aurora A Inhibitory Action
(1) Purification of Aurora A
as §1, with “A” for “B”, “BL2 1-CodonPlus(DE3)-RIL” for “BL21-CodonPlus(DE3)-RIL”
(2) Measurement of Activity of Aurora A
For measurement of the activity of Aurora A, the substrate used was Kemptide (Lys-Arg-Arg-Ala-Ser-Lys-Gly) (SEQ.ID.NO.: 1), a synthetic peptide purchased from Sigma-Aldrich, Inc. [Certificate of analysis (Upstate, Inc.)].
Reaction was conducted by a partial modification of a method by Upstate, Inc. [Kinase Profiler™ Assay Protocols]. The amount of the reaction liquid was 21.1 μL, and the composition of the reaction buffer (R2 buffer) was 50 mM Tris-hydrochloride buffer (pH 7.4)/15 mM magnesium acetate/0.2 mM ethylenediamine-N,N,N′,N′-tetraacetate (EDTA). To this, purified Aurora A, 100 μM of a substrate peptide, 20 μM of unlabeled adenosine triphosphate (ATP) and 0.5 μCi of [γ-^33P] labeled ATP (2,500 Ci/mmole or more) were added, and the mixture was reacted at 30° C. for 20 minutes. Then, 10 μL of 350 mM phosphate buffer was added to the reaction system to stop the reaction. The substrate peptide was adsorbed on a P81 paper filter 96-well plate and then washed with 130 mM phosphate buffer for several times. The radiation activity of the peptide was measured with a liquid scintillation counter. The [γ-^33P] labeled ATP was purchased from Amersham Biosciences Co., Ltd.
as §2

T1 sequence (Q96GD4 whole entry): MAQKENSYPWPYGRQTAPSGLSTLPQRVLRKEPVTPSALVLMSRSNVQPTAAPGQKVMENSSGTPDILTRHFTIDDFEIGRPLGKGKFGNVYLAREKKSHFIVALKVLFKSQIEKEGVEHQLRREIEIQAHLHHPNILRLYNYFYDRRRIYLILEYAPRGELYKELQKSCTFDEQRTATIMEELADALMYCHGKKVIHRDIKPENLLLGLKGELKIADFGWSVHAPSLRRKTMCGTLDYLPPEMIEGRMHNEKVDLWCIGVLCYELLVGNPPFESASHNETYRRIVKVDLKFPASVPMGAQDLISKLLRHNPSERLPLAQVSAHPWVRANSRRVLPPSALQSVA

Row | Compound | IC50 (Aurora B) [µM] | IC50 (Aurora A) [µM]
1 | 6-((4-(3-(dimethylamino)benzoyl)piperazin-1-yl)methyl)-N-(5-chlorothiazol-2-yl)pyridin-2-amine [Example 73] | 0.41 | 0.017
2 | O=C(c1cccc(F)c1Cl)N1CCN(Cc2cccc(Nc3nccs3)n2)CC1 [Example 9, 6-((4-(2-chloro-3-fluorobenzoyl)piperazin-1-yl)methyl)-N-thiazol-2-ylpyridin-2-amine] | 0.76 | 0.0013
3 | O=C(c1cccc(Cl)c1F)N1C[C@H]2C[C@@H]1CN2Cc1cccc(Nc2nccs2)n1 [Example 11, 6-(((1R,4R)-5-(3-chloro-2-fluorobenzoyl)-2,5-diazabicyclo[2.2.1]hept-2-yl)methyl)-N-thiazol-2-ylpyridin-2-amine] | 0.57 | 0.0013
4 | O=C(c1cccc(Br)c1F)N1CCN(Cc2cccc(Nc3nccs3)n2)CC1 [Example 12, 6-((4-(3-bromo-2-fluorobenzoyl)piperazin-1-yl)methyl)-N-thiazol-2-ylpyridin-2-amine trifluioroacetate] | 0.4 | 0.00052
5 | O=C(c1cccc(Cl)c1F)N1CCN(Cc2cccc(Nc3cc[nH]n3)n2)CC1 [Example 16, 6-((4-(3-chloro-2-fluorobenzoyl)piperazin-1-yl)methyl)-N-1H-pyrazol-3-ylpyridin-2-amine] | 1.3 | 0.0018
6 | O=C(c1cccc(C(F)(F)F)c1Cl)N1CCN(Cc2cccc(Nc3cc[nH]n3)n2)CC1 [Example 18, 6-((4-(2-chloro-3-(trifluoromethyl)benzoyl)piperazin-1-yl)methyl)-N-1H-pyrazol-3-ylpyridin-2-amine trifluoroacetate] | 0.83 | 0.0018
7 | O=C(c1cccc(Br)c1F)N1CCN(Cc2cccc(Nc3cc[nH]n3)n2)CC1 [Example 20, 6-((4-(3-bromo-2-fluorobenzoyl)piperazin-1-yl)methyl)-N-1H-pyrazol-3-ylpyridin-2-amine trifluoroacetate] | 1.8 | 0.0011
8 | O=C(Cc1ccc(Cl)c(Cl)c1)N1CCN(Cc2cccc(Nc3cc[nH]n3)n2)CC1 [Example 21, 6-((4-((3,4-dichlorophenyl)acetyl)piperazin-1-yl)methyl)-N-1H-pyrazol-3-ylpyridin-2-amine trifluoroacetate] | 6.8 | 0.016
9 | O=C(c1cccc(Cl)c1F)N1C[C@@H]2C[C@H]1CN2Cc1cccc(Nc2cc[nH]n2)n1 [Example 23, 6-(((1 S,4S)-5-(3-chloro-2-fluorobenzoyl)-2,5-diazabicyclo[2.2.1]hept-2-yl)methyl)-N-1H-pyrazol-3-ylpyridin-2-amine] | 1.2 | 0.0036
10 | CC(c1cccc(Nc2cc[nH]n2)n1)N1CCN(C(=O)c2cccc(Cl)c2F)CC1 (stereo not shown) [Example 24, 6-(1-(4-(3-chloro-2-fluorobenzoyl)piperazin-1-yl)ethyl)-N-1H-pyrazol-3-ylpyridin-2-amine] | 26 | 0.023
11 | Cc1cc(Nc2cccc(CN3CCN(C(=O)c4cccc(Cl)c4Cl)CC3)n2)n[nH]1 [Example 26, 6-((4-(2,3-dichlorobenzoyl)piperazin-1-yl)methyl)-N-(5-methyl-1H-pyrazol-3-yl)pyridin-2-amine trifluoroacetate] | 0.45 | 0.0011
12 | Cc1cc(Nc2cccc(CN3C[C@@H]4C[C@H]3CN4C(=O)c3cccc(Cl)c3F)n2)n[nH]1 [Example 27, 6-(((1S,4S)-5-(3-chloro-2-fluorobenzoyl)-2,5-diazabicyclo[2.2.1]hept-2-yl)methyl)-N-(5-methyl-1H-pyrazol-3-yl)pyridin-2-amine] | 1.7 | 0.0033
13 | O=C(c1ccccc1)N1CCN(Cc2cccc(Nc3cc(C4CC4)[nH]n3)n2)CC1 [Example 31, 6-((4-benzoylpiperazin-1-yl)methyl)-N-(5-cyclopropyl-1H-pyrazol-3-yl)pyridin-2-amine] | 0.76 | 0.037
14 | O=C(c1ccccc1)N1CCCN(Cc2cccc(Nc3ncns3)n2)CC1 [Example 35, 6-((4-benzoyl-1,4-diazepan-1-yl)methyl)-N-1,2,4-thiadiazol-5-ylpyridin-2-amine] | 3.4 | 0.031

Continued by falling IC50 (Aurora B), values first:

Row | IC50 (Aurora B) [µM] | IC50 (Aurora A) [µM] | Compound
15 | 9.5 | 0.0091 | O=C(c1cccc(Br)c1)N1CCN(Cc2cccc(Nc3ncns3)n2)CC1 [Example 38, 6-((4-(3-bromobenzoyl)piperazin-1-yl)methyl)-N-1,2,4-thiadiazol-5-ylpyridin-2-amine]
16 | 8.8 | 0.0049 | O=C(c1cccc(C(F)(F)F)c1)N1CCN(Cc2cccc(Nc3ncns3)n2)CC1 [Example 37, 6-((4-(3-(trifluoromethyl)benzoyl)piperazin-1-yl)methyl)-N-1,2,4-thiadiazol-5-ylpyridin-2-amine]
17 | 5 | 0.0029 | O=C(c1cccc(C(F)F)c1F)N1CCN(Cc2cccc(Nc3ncns3)n2)CC1 [Example 41, 6-((4-(2-fluoro-3-(difluoromethyl)benzoyl)piperazin-1-yl)methyl)-N-1,2,4-thiadiazol-5-ylpyridin-2-amine trifluoroacetate]
18 | 4.8 | 0.0037 | O=C(c1cccc(Cl)c1F)N1CCN(Cc2cccc(Nc3ncns3)n2)CC1 [Example 32, 6-((4-(3-chloro-2-fluorobenzoyl)piperazin-1-yl)methyl)-N-1,2,4-thiadiazol-5-ylpyridin-2-amine]
19 | 3 | 0.05 | C[C@@H]1CN(Cc2cccc(Nc3ncns3)n2)CCN1C(=O)c1ccccc1 [Example 33, 6-(((3R)-4-benzoyl-3-methylpiperazin-1-yl)methyl)-N-1,2,4-thiadiazol-5-ylpyridin-2-amine trifluoroacetate]
20 | 1 | 0.0014 | O=C(c1cccc(C(F)F)c1F)N1CCN(Cc2cccc(Nc3nccs3)n2)CC1 [Example 15, 6-((4-(3-(difluoromethyl)-2-fluorobenzoyl)piperazin-1-yl)methyl)-N-thiazol-2-ylpyridin-2-amine]
21 | 0.53 | 0.001 | Cc1cnc(Nc2cccc(CN3CCN(C(=O)c4cccc(Cl)c4F)CC3)n2)s1 [Example 42, 6-((4-(3-chloro-2-fluorobenzoyl)piperazin-1-yl)methyl)-N-(5-methyl-thiazol-2-yl)pyridin-2-amine trifluoroacetate]
22 | 0.38 | 0.00089 | O=C(c1cccc(C(F)(F)F)c1F)N1CCN(Cc2cccc(Nc3nccs3)n2)CC1 [Example 13, 6-((4-(2-fluoro-3-(trifluoromethyl)benzoyl)piperazin-1-yl)methyl)-N-thiazol-2-ylpyridin-2-amine trifluoroacetate]
23 | 0.092 | 0.00049 | O=C(c1cccc(Cl)c1F)N1C[C@@H]2C[C@H]1CN2Cc1cccc(Nc2nccs2)n1 [Example 10, 6-(((1S,4S)-5-(3-chloro-2-fluorobenzoyl)-2,5-diazabicyclo[2.2.1]hept-2-yl)methyl)-N-thiazol-2-ylpyridin-2-amine trifluoroacetate]

From patent publication US20080027042A1, “Novel Aminopyridine Derivatives Having Aurora a Selective Inhibitory Action” (priority 2004, published 2008)
